This series can be described thus: Release profile of marker components into vapor phase (headspace GC). The class given is physicochemical. As to conditions: for Time to saturation of the vapor phase: release from essential oil on filter paper, sealed vial, 20° C.; for Concentration in the vapor phase: Thyme oil, within 3 hours. Here is the method: The profile of release of essential oils was determined by analyses using Gas Chromatograph HP6890 Series GC-System (FID) coupled with HP 7694 Headspace sampler, equipped with column HP-5 Trace Analysis (5% PH Me Siloxane) of volume 30 m×0.25 mm×0.25 μm, at ambient temperature. The following model system was developed and calibrated: filter paper (Whatman No. 1) strips absorbed with appropriate volume of essential oil to achieve desired concentrations, i.e., similar to those used for in-vivo experiments, were placed in 20 ml and 100 ml vials. The vials were hermetically sealed and marked to indicate the time course of vaporization (1, 3, 14 and 24 hours). These vials were kept in the dark at a temperature of 20° C. until their gas chromatography analyses.
GC FID analysis was applied to determine the release profile into the vapor phase of marker individual components during a 24 hour period. […] For all markers tested, saturation was achieved within 3 hours.

With `C=CCN=C=S` [allyl isothiocyanate], the “Time to saturation of the vapor phase” value is roughly 1.5 h.

Turning to `CC(C)=CCCC(C)CC=O` (stereo not shown) [citronellal], the “Time to saturation of the vapor phase” value is roughly 3.0 h.

As to `Cc1ccc(C(C)C)cc1` [p-cymene], the “Concentration in the vapor phase” value is roughly 56%.

On to `Cc1ccc(C(C)C)c(O)c1` [thymol], for which the “Concentration in the vapor phase” value is recorded as roughly 1.2%.
